Series [1] has as its target STAT3 (Homo sapiens, UniProt P40763). In words: Immunoprecipitation and Western blotting, STAT3. The conditions noted are these: immunoprecipitation, Western blotting, U251 cells. Type of series: binding. Also on record: endogenous in cells; host or cells: U251. The source says:
Figure 2 PS-acet.-STAT3-peptide specifically binds STAT3 in the nucleus. (A) Penetration of PS-acet.-STAT3 peptide and its colocalization with STAT3 protein in U251 cells are confirmed by confocal microscopy. Scale bars: 50 μm. Insets: original magnification, ×40. (B) PS-acet.-STAT3 peptide specifically binds to STAT3 protein, not STAT1 and STAT5 proteins, shown in U251 cells by immunoprecipitation followed by Western blotting (left panel). Expression of total STAT1, STAT3, and STAT5 was confirmed by Western blotting in U251 cells (input protein level, right panel).
Whole cell lysates or tissue homogenates were prepared by using RIPA lysis buffer (50 mM Tris at pH 7.4, 150 mM NaCl, 1 mM EDTA, 0.5% NP-40, 1 mM NaF, 15% glycerol, and 20 mM β-glycerophosphate). […] Protein amounts were determined by BCA using a Thermo Fisher Scientific kit. […] The protein levels for STAT1 (sc-346, E-23), STAT3 (sc-482, C-20), STAT5 (sc-74442, A-9), Crm1 (exportin 1) (sc-5595, H-300), CAS (exportin 2) (sc-271537, H-2), exportin 5 (sc-66885, H-300), and exportin 7 (sc-98639, H-82) were determined using antibodies from Santa Cruz Biotechnology Inc. Anti–exportin 3 (exportin T, 630622, LOS1 05-1525), anti–exportin 4 (3499-1), and anti–exportin 6 (11408-1-AP) were from MilliporeSigma, Epitomics, and Proteintech, respectively. […]

The nature of series [2]: Systemic toxicity in mice. The conditions noted are these: 1 mg/kg i.v. every other day for 3 weeks, n = 3. The series is classed as in vivo. On the procedure:
To evaluate the potential toxicity associated with systemic treatments of PS-peptide, PS-acet.-STAT3 peptide, PS-oligo, naive peptide, and PO- or PS-acet.-STAT3 peptide were given to the mice at 1 mg/kg through i.v. every other day for 3 weeks.
Supplemental Figure 10 (related to Figure 3). The systemic toxicity of PS-acet.-peptide.
The bodyweight (A), blood count (B) and organ morphology (H&E staining; spleen, kidney and liver) (C) of the mice (n=3) treated with HBSS (1), PS-oligo (2), naïve peptide (3), PO-peptide (4) or PS-peptide (5) every other day at 1 mg/kg (per treatment) for 3 weeks.
Individual value of each mouse is shown as a dot on the graph. The red lines on each graph in (B) indicate the normal ranges. Blood count was done by a veterinary hematology analyzer. The images shown in (C) are the represented H&E section from three mice (n=3). Enlarged view are shown below as indicated. Scale bar, 50 µm.
Aftabizadeh and Li et al., Figure S10

The test system of series [3] is splenic CD8+ T cells. The experiment in a line: CD8+ T cell activation and ELISA (IFN-γ, IL-2). Type of series: cell-based, mouse. The conditions noted are these: anti-CD3/CD28 activated, 20 ng/mL IL-6, 1 μM peptide, 48 hours, ELISA, n = 4. On the procedure: Data are representative of 3 independent experiments (n = 3). […] Data represent 4 independent experiments (n = 4). SD is shown. One-way ANOVA; ****P < 0.001.
CD8^+ T cells were isolated from C57BL/6 mice spleens as described above. A 96-well plate (Cellstar) was precoated with 2 μg/mL anti-CD3 antibody (BioLegend, clone 145-2c11, 100331) at 4°C overnight (BioLegend), and 1–2 × 10^5 cells were seeded into each well, followed by adding 2 μg/mL soluble CD28 (BioLegend, clone 37-51, 102012) and stimulation with 20 ng/mL IL-6. PS-unacet.-STAT3, PS-STAT3-K685R, and PO- or PS-acet.-STAT3 peptides at a concentration of 1 μM were added to the cells. Peptide treatment was repeated on the following day. Control cells were treated with HBSS. After 48 hours’ treatment with peptides at 37°C, supernatants were assessed for IFN-γ and IL-2 production by R&D, Bio-Techne, kits (DY402 and DY406), according to manufacturer’s instruction.
(In general: An ELISA detects its analyte on a solid surface through an enzyme-linked reagent.)

Chain of STAT3 (P40763 whole entry): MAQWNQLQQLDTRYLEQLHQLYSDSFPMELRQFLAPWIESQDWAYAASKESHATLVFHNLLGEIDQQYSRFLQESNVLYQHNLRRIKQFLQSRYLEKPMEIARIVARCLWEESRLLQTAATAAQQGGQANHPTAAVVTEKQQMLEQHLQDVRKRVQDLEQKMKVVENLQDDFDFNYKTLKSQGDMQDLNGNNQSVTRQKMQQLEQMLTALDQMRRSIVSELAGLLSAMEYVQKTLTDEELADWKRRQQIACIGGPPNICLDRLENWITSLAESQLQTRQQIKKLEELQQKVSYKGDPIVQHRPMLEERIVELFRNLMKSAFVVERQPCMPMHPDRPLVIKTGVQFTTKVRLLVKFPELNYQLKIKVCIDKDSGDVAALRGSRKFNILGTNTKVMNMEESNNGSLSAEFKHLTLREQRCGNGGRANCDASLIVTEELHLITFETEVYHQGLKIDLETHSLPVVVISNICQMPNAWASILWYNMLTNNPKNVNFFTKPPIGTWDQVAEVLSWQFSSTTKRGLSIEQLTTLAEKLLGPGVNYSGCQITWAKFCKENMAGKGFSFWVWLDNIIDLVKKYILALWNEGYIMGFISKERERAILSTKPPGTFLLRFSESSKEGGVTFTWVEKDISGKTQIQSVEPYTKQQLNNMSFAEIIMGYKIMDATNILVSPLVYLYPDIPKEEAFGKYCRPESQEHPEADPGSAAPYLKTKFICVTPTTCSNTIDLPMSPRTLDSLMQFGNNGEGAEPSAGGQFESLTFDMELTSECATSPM

Regarding “PDIPKEEAFGK685(Ac)YCRPESQEHPC-linker-T*C*C*A*T*G*A*G*C*T*T*C*C*T*G*A*T*G*C*T [PS-acet.-STAT3 peptide]”, the “binding to STAT3 protein” value in series [1] was “specifically bound”. Also, in series [2], the “behavior, body weight, blood counts” value is “No behavior changes, body weight loss, or abnormal blood counts”; the “morphology and cell death in liver, spleen, kidney tissues (H&E)” value is recorded as “no significant morphology change or cell death”. The “interferon-γ (IFN-γ) and IL-2 production by CD8+ T cells” value in series [3] was “induced”.

The values are drawn from paper PMC7934871 (JCI Insight, 2021).
